According to US8455475B2 (Gruenenthal GmbH, priority 2009, dated 2013):

target: T1, rat B1R (bradykinin receptor 1) (Rattus norvegicus, UniProt P97583); test: FLIPR Ca2+ assay (Fluo-4) on CHO K1 cells stably transfected with the B1R gene of the rat (rB1R cells): % inhibition at 10 μM / IC50, agonist Des-Arg9-bradykinin; assay type: cell-based; conditions: CHO-K1, rat B1R
T1 construct: expressed in transfected cells; host or cells: CHO K1 cells
T1 sequence (P97583 1-337): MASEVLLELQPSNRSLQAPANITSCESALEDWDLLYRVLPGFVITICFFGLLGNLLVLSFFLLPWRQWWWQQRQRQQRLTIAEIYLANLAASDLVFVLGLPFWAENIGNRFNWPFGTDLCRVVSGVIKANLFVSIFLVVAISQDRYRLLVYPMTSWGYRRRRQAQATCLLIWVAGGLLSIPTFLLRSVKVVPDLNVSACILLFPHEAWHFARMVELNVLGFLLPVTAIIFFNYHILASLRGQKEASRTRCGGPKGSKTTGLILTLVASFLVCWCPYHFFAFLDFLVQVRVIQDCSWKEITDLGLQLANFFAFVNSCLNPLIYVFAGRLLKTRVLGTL
How it was run: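 Using a two-addition FLIPR protocol, compound (10 μM for % values; concentration series for IC50) was preincubated 10–20 min with Fluo-4-loaded B1R-expressing CHO K1 cells before EC80 agonist challenge. Suppression of Ca2+ inflow, read as peak fluorescence, is expressed relative to maximum achievable inhibition; duplicate/triplicate, ≥2 independent experiments.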

Compound | inhibition at 10 µM
O=C(N[C@@H]1CCCc2cc(F)c(C(=O)N3CCC4(CCN(c5ccncc5)CC4)C3)cc21)c1ccccc1Cl [Example H-82, 2-Chloro-N-[(1R)-6-fluoro-7-(8-pyridin-4-yl-3,8-diazaspiro[4.5]decane-3-carbonyl)-1,2,3,4-tetrahydro-naphthalen-1-yl]-benzamide] | 104%
O=C(Nc1ccc(F)cc1F)N1CCC2(CC1)CCN(C(=O)c1ccc3c(c1)C(N(C(=O)c1ccccc1Cl)C1CC1)CC3)C2 (centres unmarked) [IND_CC-719, 2-[3-[(2-Chloro-benzoyl)-cyclopropyl-amino]-2,3-dihydro-1H-indene-5-carbonyl]-N-(2,4-difluoro-phenyl)-2,8-diazaspiro[4.5]decane-8-carboxylic acid amide] | 59%
O=C(NC1CCc2ccc(C(=O)N3CCC4(CCN(Cc5c(F)cccc5Cl)CC4)CC3)cc21)c1c(F)cccc1Cl (centres unmarked) [IND_CC-803, 2-Chloro-N-[6-[9-[(2-chloro-6-fluoro-phenyl)-methyl]-3,9-diazaspiro-[5.5]undecane-3-carbonyl]-2,3-dihydro-1H-inden-1-yl]-6-fluoro-benzamide] | 76%
O=C(NC1CCc2ccc(C(=O)N3CCC4(CCN(C(=O)Cc5ccc(Cl)cc5)CC4)C3)cc21)c1sccc1Cl (centres unmarked) [IND_CC-586, 3-Chloro-N-[6-[8-[2-(4-chlorophenyl)-acetyl]-2,8-diazaspiro[4.5]decane-2-carbonyl]-2,3-dihydro-1H-inden-1-yl]-thiophene-2-carboxylic acid amide] | 76%
CN(C(=O)c1ccccc1Cl)C1CCc2ccc(C(=O)N3CCC4(CCN(C(=O)c5cc(C(C)(C)C)nn5C)CC4)C3)cc21 (centres unmarked) [IND_CC-593, N-[6-[8-(5-tert-Butyl-2-methyl-2H-pyrazole-3-carbonyl)-2,8-diazaspiro[4.5]-decane-2-carbonyl]-2,3-dihydro-1H-inden-1-yl]-2-chloro-N-methyl-benzamide] | 50%
CN(C(=O)CCC1CCCC1)C1CCc2ccc(C(=O)N3CCC4(CC3)CCN(c3ccncc3)CC4)cc21 (centres unmarked) [IND_CC-412, 3-Cyclopentyl-N-methyl-N-[6-(9-pyridin-4-yl-3,9-diazaspiro[5.5]undecane-3-carbonyl)-2,3-dihydro-1H-inden-1-yl]-propionamide] | 99%
Cc1nc[nH]c1CN1CCC2(CC1)CCN(C(=O)c1ccc3c(c1)C(NC(=O)c1cc(C(F)(F)F)ccc1Cl)CC3)CC2 (centres unmarked) [IND_CC-661, 2-Chloro-N-[6-[9-[(5-methyl-3H-imidazol-4-yl)-methyl]-3,9-diazaspiro[5.5]-undecane-3-carbonyl]-2,3-dihydro-1H-inden-1-yl]-5-(trifluoromethyl)benzamide] | 95%
Cc1cccc(C(=O)NC2CCc3ccc(C(=O)N4CCC5(CCN(c6ccncc6)CC5)C4)cc32)c1C (centres unmarked) [IND_CC-389, 2,3-Dimethyl-N-[6-(8-pyridin-4-yl-2,8-diazaspiro[4.5]decane-2-carbonyl)-2,3-dihydro-1H-inden-1-yl]-benzamide] | 103%
O=C(NC1CCc2ccc(C(=O)N3CCC4(CC3)CCN(S(=O)(=O)c3ccc(Cl)s3)CC4)cc21)c1ccccc1Cl (centres unmarked) [IND_CC-608, 2-Chloro-N-[6-[9-[(5-chloro-thiophen-2-yl)sulfonyl]-3,9-diazaspiro[5.5]undecane-3-carbonyl]-2,3-dihydro-1H-inden-1-yl]-benzamide] | 102%
CC1(C)Cc2ccc(C(=O)N3CCC4(CC3)CCN(c3ccncc3)CC4)cc2C1NS(=O)(=O)c1ccccc1Cl (centres unmarked) [IND_CC-336, 2-Chloro-N-[2,2-dimethyl-6-(9-pyridin-4-yl-3,9-diazaspiro[5.5]undecane-3-carbonyl)-1,3-dihydro-inden-1-yl]-benzenesulfonic acid amide] | 103%
O=C(c1ccc2c(c1)C(NS(=O)(=O)c1cccc(C(F)(F)F)c1)CC2)N1CCC2(CCN(c3ccncc3)CC2)C1 (centres unmarked) [IND_CC-342, N-[6-(8-Pyridin-4-yl-2,8-diazaspiro[4.5]decane-2-carbonyl)-2,3-dihydro-1H-inden-1-yl]-3-(trifluoromethyl)-benzenesulfonic acid amide] | 103%
Cc1cccc(Cl)c1C(=O)NC1CCc2ccc(C(=O)N3CCC4(CCN(Cc5c(F)cccc5Cl)CC4)C3)cc21 (centres unmarked) [IND_CC-735, 2-Chloro-N-[6-[8-[(2-chloro-6-fluoro-phenyl)-methyl]-2,8-diazaspiro-[4.5]decane-2-carbonyl]-2,3-dihydro-1H-inden-1-yl]-6-methyl-benzamide] | 81%
N#Cc1cc(S(=O)(=O)N2CCC3(CCN(C(=O)c4ccc5c(c4)C(NC(=O)c4ccccc4Cl)CC5)CC3)CC2)ccc1F (centres unmarked) [IND_CC-610, 2-Chloro-N-[6-[9-[(3-cyano-4-fluoro-phenyl)sulfonyl]-3,9-diazaspiro[5.5]undecane-3-carbonyl]-2,3-dihydro-1H-inden-1-yl]-benzamide] | 103%
Cc1cc(F)cc(C)c1S(=O)(=O)NC1CCc2ccc(C(=O)N3CCC4(CC3)CCN(c3ccncc3)CC4)cc21 (centres unmarked) [IND_CC-355, 4-Fluoro-2,6-dimethyl-N-[6-(9-pyridin-4-yl-3,9-diazaspiro[5.5]undecane-3-carbonyl)-2,3-dihydro-1H-inden-1-yl]-benzenesulfonic acid amide] | 65%
O=C(NC1CCc2ccc(C(=O)N3CCC4(CCN(C(=O)c5ccc(F)cc5F)CC4)C3)cc21)c1ccccc1Cl (centres unmarked) [IND_CC-576, 2-Chloro-N-[6-[8-(2,4-difluoro-benzoyl)-2,8-diazaspiro[4.5]decane-2-carbonyl]-2,3-dihydro-1H-inden-1-yl]-benzamide] | 79%

same assay, conditions: rat B1R

Compound | % Inhibition (rat B1R) at 10 μM
2-Chloro-N-[6-[8-[(2-chloro-4-fluoro-phenyl)-methyl]-2,8-diazaspiro-[4.5]decane-2-carbonyl]-2,3-dihydro-1H-inden-1-yl]-6-fluoro-benzamide [IND_CC-741] | 100%

target: T2, human B1R (bradykinin receptor 1) (Homo sapiens, UniProt P46663); test: FLIPR Ca2+ assay (Fluo-4) on CHO K1 cells stably transfected with the human B1R gene (hB1R cells): % inhibition at 10 μM / IC50, agonist Lys-Des-Arg9-bradykinin; assay type: cell-based; conditions: CHO-K1, human B1R
T2 construct: expressed in transfected cells; host or cells: CHO K1 cells
T2 sequence (P46663 1-353): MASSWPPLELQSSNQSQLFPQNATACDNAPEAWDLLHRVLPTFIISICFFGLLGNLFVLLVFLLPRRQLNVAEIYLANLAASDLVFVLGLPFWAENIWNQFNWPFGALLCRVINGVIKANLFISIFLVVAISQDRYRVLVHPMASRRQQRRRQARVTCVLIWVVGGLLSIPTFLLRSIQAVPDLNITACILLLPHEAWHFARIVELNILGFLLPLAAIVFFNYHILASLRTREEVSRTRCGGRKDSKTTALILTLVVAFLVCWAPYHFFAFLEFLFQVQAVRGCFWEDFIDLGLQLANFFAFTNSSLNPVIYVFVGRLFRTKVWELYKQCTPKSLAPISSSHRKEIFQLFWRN
Method: The agonistic or antagonistic action of substances can be quantified on the bradykinin receptor 1 (B1R) of the human and rat species with ectopically expressing cell lines (CHO K1 cells) and with the aid of a Ca^2+-sensitive dyestuff (Fluo-4) in a fluorescent imaging plate reader (FLIPR). The figure in % activation is based on the Ca^2+ signal after addition of Lys-Des-Arg^9-bradykinin (0.5 nM) or Des-Arg^9-bradykinin (100 nM). Antagonists lead to a suppression of the Ca^2+ inflow after addition of the agonist. % inhibition compared with the maximum achievable inhibition is stated.
The agonistic or antagonistic action of substances can be determined on the bradykinin receptor 1 (B1R) of the human and rat species with the following assay. In accordance with this assay, the Ca^2+ inflow through the channel is quantified with the aid of a Ca^2+-sensitive dyestuff (type Fluo-4, Molecular Probes Europe BV, Leiden, Holland) in a fluorescent imaging plate reader (FLIPR, Molecular Devices, Sunnyvale, USA).
Chinese hamster ovary cells (CHO K1 cells) transfected stably with the human B1R gene (hB1R cells) or the B1R gene of the rat (rB1R cells) are used. For functional studies, these cells are plated out on black 96-well plates with a clear base (BD Biosciences, Heidelberg, Germany or Greiner, Frickenhausen, Germany) in a density of 20,000-35,000 cells/well. The cells are left overnight at 37° C. and 5% CO2 in culture medium (hB1R cells: Nutrient Mixture Ham's F12, Gibco Invitrogen GmbH, Karlsruhe, Germany or DMEM, Sigma-Aldrich, Taufkirchen, Germany; rB1R cells: D-MEM/F12, Gibco Invitrogen GmbH, Karlsruhe, Germany) with 10 vol. % FBS (foetal bovine serum, Gibco Invitrogen GmbH, Karlsruhe, Germany or PAN Biotech GmbH, Aidenbach, Germany). On the following day, the cells are loaded for 60 min at 37° C. with 2.13 μM Fluo-4 (Molecular Probes Europe BV, Leiden Holland) in HBSS buffer (Hank's buffered saline solution, Gibco Invitrogen GmbH, Karlsruhe, Germany) with 2.5 mM probenecid (Sigma-Aldrich, Taufkirchen, Germany) and 10 mM HEPES (Sigma-Aldrich, Taufkirchen, Germany). The plates are then washed 2× with HBSS buffer, and HBSS buffer which additionally contains 0.1% BSA (bovine serum albumin; Sigma-Aldrich, Taufkirchen, Germany), 5.6 mM glucose and 0.05% gelatine (Merck KGaA, Darmstadt, Germany) is added. After a further incubation of 20 minutes at room temperature, the plates are inserted into the FLIPR for the Ca^2+ measurement. Alternatively, the plates are washed with buffer A (15 mM HEPES, 80 mM NaCl, 5 mM KCl, 1.2 mM CaCl2, 0.7 mM MgSO4, 2 g/l glucose, 2.5 mM probenecid), buffer A is added and the plates are loaded with 2.5 μM Fluo-4 and 0.025% Pluronic F127 (Sigma-Aldrich, Taufkirchen, Germany). Thereafter, the cells are washed 2× with buffer A and incubated for 30 minutes at room temperature with buffer A, which additionally contains 0.05% BSA and 0.05% gelatine, and thereafter inserted into the FLIPR for the Ca^2+ measurement. The Ca^2+-dependent fluorescence is measured here before and after addition of substances (λex=488 nm, λem=540 nm). Quantification is by measurement of the highest fluorescence intensity (FC, fluorescence counts) over time.
The FLIPR protocol consists of 2 additions of substance. Test substances (10 μM) are first pipetted on to the cells and the Ca^2+ inflow is compared with the control (hB1R: Lys-Des-Arg^9-bradykinin>=50 nM; rB1R: Des-Arg^9-bradykinin 10 μM). This gives the result in % activation based on the Ca^2+ signal after addition of Lys-Des-Arg^9-bradykinin (>=50 nM) or Des-Arg^9-bradykinin (10 μM). After incubation for 10-20 minutes, Lys-Des-Arg^9-bradykinin (hB1R) or Des-Arg^9-bradykinin (rB1R) in the concentration of the EC80 is applied and the inflow of Ca^2+ is likewise determined. Antagonists lead to a suppression of the Ca^2+ inflow. % inhibition compared with the maximum achievable inhibition is calculated.
For determination of the IC50 value, the substances are added in various concentrations. […]

Compound | inhibition at 10 µM
O=C(N[C@@H]1CCCc2cc(F)c(C(=O)N3CCC4(CCN(c5ccncc5)CC4)C3)cc21)c1ccccc1Cl [Example H-82, 2-Chloro-N-[(1R)-6-fluoro-7-(8-pyridin-4-yl-3,8-diazaspiro[4.5]decane-3-carbonyl)-1,2,3,4-tetrahydro-naphthalen-1-yl]-benzamide] | 100%
